Experimental data: ChEMBL document CHEMBL1201862, “PubChem BioAssay data set” (2004)
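Where inhibition never reached the appropriate level, the endpoint shown equals the highest concentration tested. Otherwise, values were interpolated linearly from a five-concentration, 48-hour dose response in 96-well plates. Abbreviation: GI50, concentration required for 50% inhibition of growth.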 Active and inactive are the calls of the source. Rule as the data show it: active = GI50 up to about 1.1 µM and inactive = higher.

Assays:
Assay in all cases: NCI tumour cell line growth inhibition, 48 h
HCT-116 = tested on: HCT-116
SK-MEL-2 = tested on: SK-MEL-2
CCRF-CEM = tested on: CCRF-CEM
UO-31 = tested on: UO-31
OVCAR-4 = tested on: OVCAR-4
SF-539 = tested on: SF-539
UACC-257 = tested on: UACC-257
Hs-578T = tested on: Hs-578T
SW-620 = tested on: SW-620
T47D = tested on: T47D
RPMI-8226 = tested on: RPMI-8226
NCI-H460 = tested on: NCI-H460
HOP-62 = tested on: HOP-62
OVCAR-3 = tested on: OVCAR-3
OVCAR-5 = tested on: OVCAR-5
PC-3 = tested on: PC-3
SNB-75 = tested on: SNB-75
DU-145 = tested on: DU-145
IGROV-1 = tested on: IGROV-1

Measured: GI50

CCOC(=O)c1c(N2CCOCC2)[nH]c(=O)c(C(c2ccco2)c2c(O)c(C(=O)OCC)c(N3CCOCC3)[nH]c2=O)c1O
inactive: HCT-116 > 100 µM | SK-MEL-2 > 100 µM | CCRF-CEM > 100 µM | UO-31 > 100 µM | OVCAR-4 > 100 µM | SF-539 > 100 µM | UACC-257 > 100 µM | Hs-578T > 100 µM | SW-620 > 100 µM | T47D > 100 µM | RPMI-8226 > 100 µM | NCI-H460 > 100 µM | HOP-62 > 100 µM | OVCAR-3 > 100 µM | OVCAR-5 > 100 µM | PC-3 > 100 µM | SNB-75 > 100 µM | DU-145 > 100 µM

O=c1[nH]c(Nc2cccc(C(F)(F)F)c2)nc2[nH]cnc12
inactive: HCT-116 80 µM | SK-MEL-2 88.3 µM | CCRF-CEM > 100 µM | OVCAR-4 94.2 µM | SF-539 > 100 µM | UACC-257 > 100 µM | Hs-578T 75.7 µM | SW-620 > 100 µM | T47D > 100 µM | RPMI-8226 > 100 µM | HOP-62 > 100 µM | OVCAR-3 > 100 µM | IGROV-1 > 100 µM | OVCAR-5 > 100 µM | PC-3 75.2 µM | SNB-75 71.1 µM | DU-145 > 100 µM

COc1c(-c2cc(C)c(Cl)c(=O)[nH]2)c(O)c(OC)c2occc12
inactive: HCT-116 > 100 µM | SK-MEL-2 > 100 µM | UO-31 38.5 µM | OVCAR-4 > 100 µM | SF-539 > 100 µM | UACC-257 > 100 µM | Hs-578T > 10 µM | SW-620 > 100 µM | T47D > 100 µM | RPMI-8226 > 100 µM | NCI-H460 > 100 µM | HOP-62 > 100 µM | OVCAR-3 > 100 µM | IGROV-1 > 100 µM | OVCAR-5 > 100 µM | PC-3 > 100 µM | SNB-75 26.7 µM | DU-145 > 100 µM

O=c1[nH]c(=O)n(C2CC(O)C(CO)O2)cc1OC/C=C/Cc1ccccc1 (stereo not drawn)
inactive: HCT-116 > 100 µM | CCRF-CEM > 100 µM | UO-31 > 100 µM | OVCAR-4 > 100 µM | UACC-257 > 100 µM | Hs-578T > 100 µM | T47D > 100 µM | RPMI-8226 > 100 µM | NCI-H460 > 100 µM | HOP-62 > 100 µM | OVCAR-3 > 100 µM | IGROV-1 > 100 µM | OVCAR-5 > 100 µM | PC-3 > 100 µM | SNB-75 > 100 µM | DU-145 > 100 µM

CC(C)(C)OC(=O)/C=C/[C@@H](CCC(=O)/C=C/[C@H](/C=C\CCCC(=O)O)NC1(c2ccccc2)c2ccccc2-c2ccccc21)O[Si](C)(C)C(C)(C)C
inactive: HCT-116 13.6 µM | SK-MEL-2 15.4 µM | CCRF-CEM 29.2 µM | UO-31 15.2 µM | OVCAR-4 17.1 µM | SF-539 18.2 µM | UACC-257 17.8 µM | Hs-578T 38.9 µM | SW-620 26.9 µM | T47D 12.6 µM | RPMI-8226 10.5 µM | NCI-H460 17.6 µM | HOP-62 17.5 µM | OVCAR-3 16.7 µM | IGROV-1 16.5 µM | OVCAR-5 20.5 µM | PC-3 13.5 µM | DU-145 16.6 µM

Cc1ccc(N(C=O)c2c([N+](=O)[O-])cc([N+](=O)[O-])c3c2=[N+]([O-])CN=3)cc1
inactive: HCT-116 24.8 µM | SK-MEL-2 17.7 µM | UO-31 29.3 µM | OVCAR-4 30.9 µM | SF-539 32 µM | UACC-257 21 µM | Hs-578T 29 µM | SW-620 45.4 µM | T47D 17.5 µM | RPMI-8226 20.7 µM | NCI-H460 > 100 µM | HOP-62 60 µM | OVCAR-3 24.2 µM | IGROV-1 38.8 µM | OVCAR-5 > 100 µM | PC-3 20.4 µM | SNB-75 33.7 µM | DU-145 27.2 µM

C=CCCC1CCCCNC1=S (stereo not drawn)
inactive: HCT-116 > 10 µM | SK-MEL-2 > 10 µM | CCRF-CEM > 10 µM | UO-31 > 10 µM | OVCAR-4 > 10 µM | SF-539 > 10 µM | UACC-257 > 10 µM | Hs-578T > 10 µM | SW-620 > 10 µM | T47D > 10 µM | RPMI-8226 > 10 µM | NCI-H460 > 10 µM | HOP-62 > 10 µM | OVCAR-3 > 10 µM | IGROV-1 > 10 µM | OVCAR-5 > 10 µM | PC-3 > 10 µM | DU-145 > 10 µM

O=C(/C=C\c1ccsc1)c1ccccc1
inactive: HCT-116 3.85 µM | SK-MEL-2 16.7 µM | UO-31 7.1 µM | OVCAR-4 3.94 µM | SF-539 7.06 µM | UACC-257 16.6 µM | Hs-578T 5.35 µM | SW-620 2.91 µM | T47D 5.31 µM | RPMI-8226 2.22 µM | NCI-H460 11.4 µM | HOP-62 16.1 µM | OVCAR-3 14.7 µM | IGROV-1 6.9 µM | OVCAR-5 16.1 µM | PC-3 11.1 µM | SNB-75 10.1 µM | DU-145 12.8 µM

O=C(Nc1ccc(Cl)cc1)NS(=O)(=O)c1c(-c2ccccc2)oc2ccccc2c1=O
inactive: HCT-116 92.7 µM | SK-MEL-2 45.2 µM | CCRF-CEM 33.9 µM | UO-31 38.5 µM | OVCAR-4 > 100 µM | SF-539 47.9 µM | UACC-257 > 100 µM | Hs-578T > 100 µM | SW-620 > 100 µM | T47D 48 µM | RPMI-8226 58.9 µM | NCI-H460 47.4 µM | HOP-62 71.6 µM | IGROV-1 83 µM | OVCAR-5 > 100 µM | PC-3 56.8 µM | SNB-75 > 100 µM | DU-145 27.9 µM

COc1ccc(/C=C2\CN(C)CC3=C2OC(N)=C(C#N)C3c2ccc(OC)cc2)cc1 (stereo not drawn)
inactive: HCT-116 24.3 µM | SK-MEL-2 > 45.9 µM | CCRF-CEM 7.57 µM | UO-31 > 50.5 µM | OVCAR-4 21.6 µM | SF-539 > 100 µM | UACC-257 50.5 µM | Hs-578T 88.1 µM | SW-620 > 94.2 µM | T47D 13.6 µM | RPMI-8226 9.82 µM | NCI-H460 24.9 µM | HOP-62 > 77.4 µM | OVCAR-3 21.6 µM | IGROV-1 15.9 µM | OVCAR-5 > 100 µM | PC-3 > 25.8 µM | DU-145 > 76.6 µM

O=C1CC(c2ccccc2)[S+]([O-])c2ccccc2N1 (stereo not drawn)
inactive: HCT-116 > 100 µM | CCRF-CEM > 100 µM | UO-31 > 100 µM | OVCAR-4 > 100 µM | UACC-257 23.1 µM | Hs-578T > 100 µM | T47D > 100 µM | RPMI-8226 > 100 µM | NCI-H460 > 100 µM | HOP-62 > 100 µM | OVCAR-3 > 100 µM | IGROV-1 > 100 µM | OVCAR-5 > 100 µM | PC-3 > 100 µM | SNB-75 > 100 µM | DU-145 > 100 µM

C[C@@H]1OC(=O)C[C@H]2CC(=O)N(CCc3cn(S(=O)(=O)C(F)(F)F)c4ccccc34)C[C@@H]21
inactive: HCT-116 > 100 µM | SK-MEL-2 > 100 µM | CCRF-CEM > 100 µM | UO-31 > 100 µM | OVCAR-4 > 100 µM | UACC-257 > 100 µM | Hs-578T > 100 µM | SW-620 > 100 µM | T47D > 100 µM | RPMI-8226 > 100 µM | NCI-H460 > 100 µM | HOP-62 > 100 µM | OVCAR-3 > 100 µM | IGROV-1 > 100 µM | OVCAR-5 > 100 µM | PC-3 > 100 µM | SNB-75 > 100 µM | DU-145 > 100 µM

CO[C@@H](c1ccccc1)[C@H](O)[C@@](O)(c1ccccc1)P(=O)(OC)OC
inactive: HCT-116 > 100 µM | SK-MEL-2 > 100 µM | CCRF-CEM > 100 µM | UO-31 > 100 µM | SF-539 > 100 µM | UACC-257 > 100 µM | Hs-578T > 100 µM | SW-620 > 100 µM | T47D > 100 µM | RPMI-8226 > 100 µM | NCI-H460 > 100 µM | OVCAR-3 > 100 µM | IGROV-1 48.2 µM | OVCAR-5 > 100 µM | PC-3 > 100 µM | SNB-75 > 100 µM | DU-145 > 100 µM

NC(CCC(=O)c1ccccn1)C(=O)O (stereo not drawn)
inactive: HCT-116 > 100 µM | SK-MEL-2 > 100 µM | CCRF-CEM > 100 µM | UO-31 > 100 µM | OVCAR-4 > 100 µM | SF-539 > 100 µM | UACC-257 > 100 µM | Hs-578T > 100 µM | SW-620 > 100 µM | T47D > 100 µM | RPMI-8226 > 100 µM | NCI-H460 > 100 µM | HOP-62 > 100 µM | OVCAR-3 > 100 µM | IGROV-1 > 100 µM | OVCAR-5 > 100 µM | PC-3 > 100 µM | DU-145 > 100 µM

CCOC(=O)/C(C#N)=C/c1ccnc2ccccc12
inactive: HCT-116 2.19 µM | SK-MEL-2 > 100 µM | OVCAR-4 > 100 µM | SF-539 20.2 µM | UACC-257 > 100 µM | Hs-578T > 100 µM | SW-620 9.79 µM | T47D > 100 µM | RPMI-8226 25.4 µM | NCI-H460 > 100 µM | HOP-62 > 100 µM | OVCAR-3 53.7 µM | IGROV-1 40.2 µM | OVCAR-5 > 100 µM | PC-3 36.9 µM | SNB-75 > 100 µM | DU-145 > 100 µM
